Reference: patent US20260007679A1, “METHODS OF TREATING CANCER USING 3-(4-((4-(MORPHOLINOMETHYL)BENZYL)OXY)-1-OXOISOINDOLIN-2-YL)PIPERIDINE-2,6-DIONE” (Celgene Corporation, priority 2012, published 2026)
Several values for one entry are separate records, joined by “and”; a condition that tells them apart may be missing. Identical values can stand only once.

Experiments:
[1] = tested on: H929 DMSO-treated subclone; assay: Proliferation and viability by 7-AAD staining; format: cell-based; conditions: Homo sapiens, NCI-H929, 120 h, 5 days, read-out: IC50 for inhibition of proliferation
Description: (§1) CRBN ubiquitination was measured in HEK293T cells, which were transfected with an amino-terminal His-biotin-tagged CRBN construct, then preincubated with compounds for one hour followed by treatment with the MG132 proteasome inhibitor (to arrest degradation of ubiquitinated proteins). Cells were lysed and processed to measure CRBN ubiquitination by SDS-PAGE and immunoblot analysis using an anti-ubiquitin antibody. Cell proliferation studies were conducted in lenalidomide-sensitive and refractory multiple myeloma cells. […] T-cell costimulation was measured in purified primary human T cells stimulated using immobilized anti-CD3 antibody in cell culture for 2 days, and cytokine secretion was measured by ELISA.

H929 cells = assay: Cell cycle and protein expression in H929 cells; format: cell-based
[2] = tested on: Revlimid-resistant NCI-H929 R4-10; assay: Proliferation and viability by 7-AAD staining; format: cell-based; conditions: Homo sapiens, NCI-H929, 120 h; R4-10; 5 days; read-out: IC50, proliferation
Pharmacokinetics in rat = format: in vivo; conditions: SD Rat, 67% S-enantiomer, 33% R-enantiomer
[3] = tested on: Revlimid-resistant NCI-H929 R3-10; assay: Proliferation and viability by 7-AAD staining; format: cell-based; conditions: Homo sapiens, NCI-H929, 120 h; R3-10; 5 days; read-out: IC50, proliferation
human umbilical artery = assay: Human umbilical artery assay; format: cell-based
Description: Compounds I, I-R, and I-S were tested in various angiogenesis inhibition assays.

Rec-1 MCL cells = assay: 3 day 3H-thymidine incorporation assay; format: cell-based
[4] = tested on: lenalidomide resistant H929 subclones; assay: Proliferation and viability by 7-AAD staining; format: cell-based
Description: The Revlimid-resistant or -sensitive cell lines were treated with test compounds for 5 days, and then cell proliferation and viability were assessed by 7-aminoactinomycin D (7-AAD) staining.
as §1

[5] = tested on: DoHH2 Follicular Lymphoma xenograft; assay: DoHH2 Follicular Lymphoma xenograft model; format: in vivo, mouse
[6] = tested on: Revlimid-resistant NCI-H929 R2-10; assay: Proliferation and viability by 7-AAD staining; format: cell-based; conditions: Homo sapiens, NCI-H929, 120 h; R2-10; 5 days; read-out: IC50, proliferation
[7] = Pharmacokinetics in monkey; format: in vivo; conditions: >99.5% S-enantiomer, <0.5% R-enantiomer
[8] = tested on: blood vessel growth in Matrigel plugs; assay: Mouse Matrigel angiogenesis model; format: in vivo, C57B/6 mice; conditions: 3 and 30 mpk; 10 days
Description: Mouse Matrigel Angiogenesis model was conducted as follows: Matrigel plugs with rhVegf, rhbFGF and heparin were inserted into C57B/6 mice for 10 days with drug treatment. Plugs were analyzed for ms CD31 by IHC.

[9] = tested on: NK cell mediated ADCC against Rituximab coated lymphoma cells; assay: NK cell mediated ADCC assay (LDH release); format: cell-based, human
Description: NK cells from healthy donors were isolated from buffy coat blood by negative selection using the RosetteSep NK cell enrichment cocktail (Stem Cell Technologies, Vancouver, BC) prior to Ficoll-Hypaque (Fisher Scientific Co LLC, PA) density gradient centrifugation following the manufacturers' instructions. CD56+NK cells were isolated to ˜85% purity, as determined by flow cytometry (BD Biosciences, CA).
ADCC Assay: Purified NK cells (5×104) were seeded in 96-well U-bottom plates in 100 μL of RPMI-1640 medium without phenol (Invitrogen)+2% human AB+serum (Gemini Bio Products, CA) and treated with 10 ng/mL rhIL-2 and rituximab (5 μg/mL) plus different concentrations of test compounds at 0.01 to 10 μM for 48 hours. Various lymphoma cell lines (GCB-DLBCL: WSU-DLCL2 and Farage; Follicular lymphoma: DoHH2; ABC-DLBCL: Riva; Burkitt's lymphoma [BL]: Raji) were treated with 5 µg/mL rituximab for 30 minutes at 37° C. Unbound rituximab was washed off, target cells (5×103/100 μL/well) were added to the pretreated effector cells (NK cells) at a 10:1 ratio, and the two were co-incubated for 4 hours at 37° C. Control conditions consisted of NK cells plus tumor cells treated with (1) medium alone, (2) rituximab only, or (3) IL-2 alone. Using an aliquot of supernatant (50 μL), NK cell cytotoxicity against tumor cells was analyzed using a standard lactate dehydrogenease (LDH) release assay to measure ADCC (CytoTox 96 Non-Radioactive Cytoxicity Assay, Promega, WI). Spontaneous release by target cells alone was <15% of the maximum release, as determined with target cells lysed in 1% Triton X-100. The experimental release was corrected by subtraction of the spontaneous release of effector cells at the corresponding dilution. The percentage of specific lysis was calculated according to the formula: Percentage specific lysis=100×(experimental−effector spontaneous−target spontaneous)/(target maximum−target spontaneous).
NK cell-mediated specific lysis was calculated with the following formula: Percentage specific lysis=[(experimental release−spontaneous release)/(maximum release−spontaneous release)]×100. Results were analyzed using GraphPad Prism v5.0 software. Data are presented as the percentage cytotoxicity relative to DMSO-treated cells.

[10] = Sprague-Dawley, plasma, 10 mg/kg, 10 mpk po
[11] = 2 mg/kg monotherapy, 91% S-enantiomer, 9% R-enantiomer
[12] = 3 mg/kg monotherapy, 84% S-enantiomer, 16% R-enantiomer
[13] = 3 mg/kg with Rituxan 1 mg/kg, 84% S-enantiomer, 16% R-enantiomer
[14] = 30 mg/kg monotherapy, Compound I-S: 84% S-enantiomer, 16% R-enantiomer
[15] = 30 mg/kg with Rituxan 1 mg/kg, Compound I-S: 84% S-enantiomer, 16% R-enantiomer
[16] = 40 mg/kg monotherapy, Compound I-S: 91% S-enantiomer, 9% R-enantiomer

O=C1CC[C@H](N2Cc3c(OCc4ccc(CN5CCOCC5)cc4)cccc3C2=O)C(=O)N1 [Compound I-S, (S)-3-(4-((4-(morpholinomethyl)benzyl)oxy)-1-oxoisoindolin-2-yl)piperidine-2,6-dione]
IC50 [1]: 40 nM | expression of cyclin-dependent kinase inhibitor p27 (H929 cells; 48 hours): increased | expression of retinoblastoma protein (pRB) (H929 cells; 48 hours): decreased | expression of survivin (H929 cells; 48 hours): decreased | decrease in cell cycle (S-phase) (H929 cells; after 24 hours of treatment): 50% | IC50 [2]: 1580 nM | F (Pharmacokinetics in rat; 10 mpk po): 52% | AUC (Pharmacokinetics in rat; Sprague-Dawley, plasma, 2 mg/kg, 2 mpk iv): 890 ng·h/mL and 2 µM·h | clearance (Pharmacokinetics in rat; Sprague-Dawley, plasma, 2 mg/kg, 2 mpk iv, read-out: CLp): 37 mL/min/kg | Vd (Pharmacokinetics in rat; Sprague-Dawley, plasma, 2 mg/kg, 2 mpk iv, read-out: Vss): 2.9 L/kg | AUC (Pharmacokinetics in rat; [10]): 2400 ng·h/mL and 5.2 µM·h | Cmax (Pharmacokinetics in rat; [10]): 1500 ng/mL and 3.3 µM | IC50 [3]: 510 nM | IC50 (human umbilical artery): 52 nM | IC50 (Rec-1 MCL cells; Homo sapiens, Rec1, 72 h, 3 day, read-out: anti-proliferative IC50): 27 nM | combination effect, fractional product method (Rec-1 MCL cells; combined with Rituxan): additive manner | activity against Revlimid-resistant cell lines [4]: active | IC50 ([4]; Homo sapiens, NCI-H929, 120 h, read-out: IC50 for inhibition of proliferation): 510 to 1580 nM | % TGD ((T − C)/C) [5, 11]: 33% | % TGI at D12 (T/C) [5, 11]: 49% | tumor growth, combination study ([5]; 3 mg/kg in combination with Rituxan): more efficacious than Revlimid at 30 mg/kg in combination with Rituxan | % TGD ((T − C)/C) [5, 12]: 13% | % TGI at D12 (T/C) [5, 12]: 27% | % TGD ((T − C)/C) [5, 13]: 57% | % TGI at D12 (T/C) [5, 13]: 71% | % TGD ((T − C)/C) [5, 14]: 21% | % TGI at D12 (T/C) [5, 14]: 35% | % TGD ((T − C)/C) [5, 15]: 56% | % TGI at D12 (T/C) [5, 15]: 50% | % TGD ((T − C)/C) [5, 16]: 52% | % TGI at D12 (T/C) [5, 16]: 67% | tumor growth, monotherapy study ([5]; 2 and 40 mg/kg): significantly inhibits tumor growth | IC50 [6]: 1200 nM | F ([7]; 1 mpk po): 20% | AUC ([7]; plasma, 0.5 mg/kg, 0.5 mpk iv): 490 ng·h/mL and 1.1 µM·h | clearance ([7]; plasma, 0.5 mg/kg, 0.5 mpk iv, read-out: CLp): 8.4 mL/min/kg | Vd ([7]; plasma, 0.5 mg/kg, 0.5 mpk iv, read-out: Vss): 1.2 L/kg | AUC ([7]; plasma, 1 mg/kg, 1 mpk po): 390 ng·h/mL and 0.87 µM·h | Cmax ([7]; plasma, 1 mg/kg, 1 mpk po): 140 ng/mL and 310 nM

O=C1CCC(N2Cc3c(OCc4ccc(CN5CCOCC5)cc4)cccc3C2=O)C(=O)N1 (racemic) [Compound I, 3-(4-((4-(morpholinomethyl)benzyl)oxy)-1-oxoisoindolin-2-yl)piperidine-2,6-dione]
blood vessel growth (ms CD31 IHC) [8]: significantly inhibits | concentration of peak ADCC activity ([9]; Farage cells): 1 µM | concentration of peak ADCC activity ([9]; Raji cells): 0.1 µM | rituximab-mediated ADCC, all cell lines ([9]; WSU-DLCL2, Farage, DoHH2, Riva, Raji): more active than compounds I-S and I-R in all the cell lines tested except in Riva cells | concentration of peak ADCC activity ([9]; WSU-DLCL2 cells): 0.1 µM | concentration of peak ADCC activity ([9]; other cell lines (than WSU-DLCL2 and Raji)): 1 µM
